In patent publication US9962405B2, “Antiviral gel combination” (YEDITEPE UNIVERSITESI, priority 2013, dated 2018):

Columns and labels:
[1] = system: Herpes Simplex Type 1 virus; assay: Antiviral activity on HSV type 1 in Vero cells, cell viability by MTS, viral inhibition calculated; type: cell-based; settings: tested at 0.0005, 0.001 and 0.002%, HSV-1 dilutions 10^-2 to 10^-5
Method: Vero cells and Herpes Simplex Type 1 virus were used in order to observe the activity of the antiviral gel formulation; which is composed of a mixture of sodium pentaborate pentahydrate chlorhexidine and poloxamer; on Herpes Simplex Type 1 virus. Virus stock dilutions were prepared and used for the analysis. Five different concentrations were prepared from the main stock up to 10^−5 concentration and among these concentrations, the dilution of 10^−1 concentration was cancelled since no viable cell was observed. The other antiviral analyses were made at four different concentration values ranging from 10^−2 to 10^−5. Chlorhexidine was applied at three different concentrations: 0.0005-0.001-0.002%.

Vero cells = settings: chlorhexidine at 0.002%; known from reference [12]; cited from earlier work
HSV-1 virus = settings: in vitro, vero cells; cited from earlier work
Herpes simplex virus = settings: topically applied on infected skin, animal studies; cited from earlier work

**Q.** Which “concentration of chlorhexidine alone at which the best antiviral activity was observed” value [1] does the source give for `[H]/N=C(\N/C(=N/[H])NCCCCCCNC(=N)NC(=N)Nc1ccc(Cl)cc1)Nc1ccc(Cl)cc1` [chlorhexidine] here?
**A.** 0.002%

**Q.** What about the cytotoxic effect (Vero cells) of the same compound?
**A.** cytotoxic effect

**Q.** What about the “inhibition of viral replication of HSV-1” value (HSV-1 virus) of the same compound?
**A.** inhibits viral replication

**Q.** And the “inhibition of virus proliferation and lesion formation” value (Herpes simplex virus)?
**A.** inhibits the virus from proliferating and forming lesions
